# In article PMC11418212, “Characterization of four structurally diverse inhibitors of SUR2-containing KATP channels” (Channels, 2024):
# Tests used:
# [1] = target: T1, Kir4.1/5.1 (Homo sapiens, UniProt P78508+Q9NPI9); assay: Kir family selectivity thallium flux assay; type: cell-based
# T1 construct: expressed in transfected cells
# T1 sequence (P78508 1-379): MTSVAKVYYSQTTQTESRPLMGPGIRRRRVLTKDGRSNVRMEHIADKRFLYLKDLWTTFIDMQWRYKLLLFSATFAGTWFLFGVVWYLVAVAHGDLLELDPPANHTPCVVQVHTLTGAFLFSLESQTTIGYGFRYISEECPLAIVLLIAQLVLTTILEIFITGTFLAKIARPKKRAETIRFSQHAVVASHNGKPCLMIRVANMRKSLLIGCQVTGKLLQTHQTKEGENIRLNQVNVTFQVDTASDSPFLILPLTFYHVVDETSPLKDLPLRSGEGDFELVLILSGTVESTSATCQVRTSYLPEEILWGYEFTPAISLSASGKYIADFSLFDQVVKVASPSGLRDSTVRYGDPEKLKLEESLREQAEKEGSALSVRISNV
# T1 sequence (Q9NPI9 1-418): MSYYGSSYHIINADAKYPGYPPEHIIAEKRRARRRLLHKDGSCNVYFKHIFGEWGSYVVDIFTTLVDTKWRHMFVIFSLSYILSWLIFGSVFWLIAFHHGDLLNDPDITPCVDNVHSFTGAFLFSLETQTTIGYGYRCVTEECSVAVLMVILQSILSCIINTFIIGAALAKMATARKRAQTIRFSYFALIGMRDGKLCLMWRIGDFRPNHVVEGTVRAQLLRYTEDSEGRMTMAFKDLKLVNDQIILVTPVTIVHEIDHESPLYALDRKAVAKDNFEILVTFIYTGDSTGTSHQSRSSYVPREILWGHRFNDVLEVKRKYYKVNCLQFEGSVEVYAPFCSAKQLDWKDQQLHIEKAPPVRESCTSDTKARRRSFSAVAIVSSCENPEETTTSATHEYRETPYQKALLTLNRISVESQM
# Description: (§1) Thallium flux assays were conducted using the established methods. Stably transfected T-REx-HEK-293 cells expressing Kir6.2/SUR1 or Kir6.1/SUR2B were cultured overnight in polyamine-coated plates (black-walled, clear-bottomed; BD, Bedford, MA) at a density of 20,000 cells in 20 µl per well of cell culture media. The expression of Kir6.2/SUR1 or Kir6.1/SUR2B channels was induced by treating cells with 1 µg/ml tetracycline overnight. The following day, cells were rinsed with an assay buffer (Hanks’ Balanced Salt Solution supplied with 20 mM HEPES), loaded with the thallium-sensor dye Brilliant Thallos-AM AM (Ion Bioscience, San Marcos, TX) for 1 h, and then washed again with assay buffer to remove unincorporated dye. The cell plate was subsequently placed in a Panoptic Kinetic Imaging Plate Reader (Wavefront Bioscience, Franklin, TN) and imaged at a frequency of 1 Hz using 482/35 nm (excitation) and 536/40 nm (emission) filter sets. Kir6.1/SUR2B channels were activated with 10 µM pinacidil, whereas Kir6.1/SUR1 was activated with 30 µM VU0071063 [34]. To activate KATP channels independent of activators with ATP-depletion method, cells were treated with a cocktail of metabolic inhibitors (2.5 mM sodium cyanide and 20 mM 2-deoxy glucose) for 25 min before imagine. Control and test compounds diluted freshly from DMSO stocks into assay buffer were added to wells for four minutes before adding 0.5 mM chloride-free thallium stimulus buffer (Ion Bioscience) to initiate thallium flux through the expressed KATP channels. Thallium flux was recorded from all 384-wells for 2 min before terminating the experiment. […] Selectivity assays against other Kir channels were performed as described previously.
# (§2) To begin elucidating the binding site location of VU0212387, VU0543336, VU0605768, and VU0544086, we evaluated the activity of the inhibitors against KATP channels composed of different Kir and SUR subunit combinations expressed in HEK293 cells. Specifically, the compounds were tested against Kir6.1/SUR1, Kir6.2/SUR1, Kir6.1/SUR2A, Kir6.2/SUR2A, Kir6.1/SUR2B, and Kir6.2/SUR2B at a dose of 3 µM. […] We expanded the selectivity analysis to include 10 other members of the Kir channel family.
# [2] = target: T2, Kir3.1/3.2 (Homo sapiens, UniProt P48051+P48549); assay: Kir family selectivity thallium flux assay; type: cell-based
# T2 construct: expressed in transfected cells
# T2 sequence (P48549 1-501): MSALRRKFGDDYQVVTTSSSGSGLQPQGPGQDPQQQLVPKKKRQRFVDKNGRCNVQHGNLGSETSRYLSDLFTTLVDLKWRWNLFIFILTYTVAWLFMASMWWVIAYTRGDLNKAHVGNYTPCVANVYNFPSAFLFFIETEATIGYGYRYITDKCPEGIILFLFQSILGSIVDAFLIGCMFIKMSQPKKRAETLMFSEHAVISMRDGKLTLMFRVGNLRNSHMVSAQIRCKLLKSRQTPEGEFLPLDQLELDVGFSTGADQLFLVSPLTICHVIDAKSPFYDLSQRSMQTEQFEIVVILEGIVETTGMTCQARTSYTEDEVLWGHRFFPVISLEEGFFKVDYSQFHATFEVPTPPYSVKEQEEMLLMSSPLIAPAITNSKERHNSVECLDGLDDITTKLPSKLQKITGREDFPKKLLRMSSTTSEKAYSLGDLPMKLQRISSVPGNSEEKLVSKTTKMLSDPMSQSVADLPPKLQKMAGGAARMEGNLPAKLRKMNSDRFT
# T2 sequence (P48051 1-423): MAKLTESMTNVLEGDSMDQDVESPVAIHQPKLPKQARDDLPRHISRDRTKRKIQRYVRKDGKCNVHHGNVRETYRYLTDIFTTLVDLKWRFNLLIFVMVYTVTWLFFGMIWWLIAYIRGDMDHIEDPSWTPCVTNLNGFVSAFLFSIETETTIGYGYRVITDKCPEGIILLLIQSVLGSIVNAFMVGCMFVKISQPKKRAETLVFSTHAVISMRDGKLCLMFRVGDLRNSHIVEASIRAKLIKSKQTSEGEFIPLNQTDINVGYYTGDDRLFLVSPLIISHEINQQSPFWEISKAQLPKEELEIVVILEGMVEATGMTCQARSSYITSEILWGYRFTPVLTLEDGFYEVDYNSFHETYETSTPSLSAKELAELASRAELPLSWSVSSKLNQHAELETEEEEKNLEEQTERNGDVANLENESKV
# Description: as §1, §2
Compound,IC50 [1],IC50 [2]
"O=C(NCC(O)(c1ccccc1)C(F)(F)F)c1ccc(OC(F)(F)F)cc1 (centres unmarked) [VU0543336, N-(3,3,3-trifluoro-2-hydroxy-2-phenylpropyl)-4-(trifluoromethoxy)benzamide]",> 30 µM,> 30 µM
"O=C1c2oc3ccccc3c(=O)c2C(c2cccc(Br)c2)N1CCO (centres unmarked) [VU0605768, 1-(3-bromophenyl)-2-(2-hydroxyethyl)-1,2-dihydrochromeno[2,3-c]pyrrole-3,9-dione]",> 30 µM,> 30 µM
"O=C(NCc1cc(-c2ccncc2)n(C2CCCC2)n1)Nc1cccs1 [VU0544086, 1-((1-cyclopentyl-5-(pyridin-4-yl)-1 H-pyrazol-3-yl)methyl)-3-(thiophen-2-yl)urea]",> 30 µM,> 30 µM
"c1ccc2[nH]c(CSc3ncnc4c3oc3ccccc34)nc2c1 [VU0212387, 4-(((1 H-benzo[d]imidazol-2-yl)methyl)thio)benzofuro[3,2-d]pyrimidine]",> 30 µM,> 30 µM
